Laboratory results: patent US4468511A, “C-20- And C-23-Modified macrolide derivatives” (Eli Lilly and Company, priority 1983, dated 1984)
Values after ≈ are worked out from the molar mass of the structure shown. Where two headings read alike, the source gives them in different places.

Assays:
Format in all cases: cell-based
Escherichia coli EC14 = test: MIC, standard agar-dilution assay; conditions: agar-dilution; Escherichia coli EC14; read-out: MIC
Experimental: (§1) Certain of the derivatives are active against some gram-negative bacteria, such as Pasteurella species. The MIC's in Table II were determined by standard agar-dilution assays. The MIC's in Table III were obtained using a conventional broth-dilution microtiter test.

Escherichia coli TEM = test: MIC, standard agar-dilution assay
Experimental: as §1

[1] = system: Klebsiella pneumoniae KAE; test: MIC, standard agar-dilution assay; conditions: agar-dilution; Klebsiella pneumoniae KAE; read-out: MIC
Experimental: as §1

[2] = system: Klebsiella pneumoniae X26; test: MIC, standard agar-dilution assay
Experimental: as §1

[3] = system: Staphylococcus aureus V41; test: MIC, standard agar-dilution assay; conditions: Staphylococcus aureus, V41
Experimental: as §1

[4] = system: Staphylococcus aureus X1.1; test: MIC, standard agar-dilution assay
Experimental: as §1

[5] = system: Streptococcus Group D X66; test: MIC, standard agar-dilution assay
Experimental: as §1

[6] = system: Streptococcus pneumoniae Park I; test: MIC, standard agar-dilution assay
Experimental: as §1

[7] = system: Streptococcus pyogenes 9960; test: MIC, standard agar-dilution assay
Experimental: as §1

[8] = system: Haemophilus influenzae 76; test: MIC, standard agar-dilution assay
Experimental: (§2) The MIC's in Table II were determined by standard agar-dilution assays. The MIC's in Table III were obtained using a conventional broth-dilution microtiter test.

[9] = system: Haemophilus influenzae C.L.; test: MIC, standard agar-dilution assay
Experimental: as §2

[10] = system: Staphylococcus aureus X400; test: MIC, standard agar-dilution assay; conditions: Staphylococcus aureus, X400
Experimental: as §2

[11] = system: Staphylococcus epidermidis EPI2; test: MIC, standard agar-dilution assay
Experimental: as §2

[12] = system: Staphylococcus aureus S13E; test: microbe, parasite or virus in culture
Experimental: as §2

[13] = system: Staphylococcus epidermidis EPI1; test: microbe, parasite or virus in culture
Experimental: as §2

[14] = system: Mycoplasma gallisepticum 34159; test: MIC, conventional broth-dilution microtiter test; conditions: Mycoplasmoides gallisepticum; broth-dilution microtiter; Mycoplasma gallisepticum 34159, Resistant strain; read-out: MIC
Experimental: as §1

[15] = system: Mycoplasma gallisepticum 41313; test: MIC, conventional broth-dilution microtiter test; conditions: Mycoplasmoides gallisepticum; broth-dilution microtiter; Mycoplasma gallisepticum 41313, Resistant strain; read-out: MIC
Experimental: as §1

Mycoplasma gallisepticum = test: MIC, conventional broth-dilution microtiter test; conditions: Mycoplasmoides gallisepticum
Experimental: as §1

Mycoplasma hyorhinis = test: MIC, conventional broth-dilution microtiter test; conditions: broth-dilution microtiter; Mycoplasma hyorhinis; read-out: MIC
Experimental: as §1

[16] = system: Pasteurella hemolytica 22C; test: MIC, conventional broth-dilution microtiter test; conditions: broth-dilution microtiter; Pasteurella hemolytica 22C; read-out: MIC
Experimental: as §1

[17] = system: Pasteurella hemolytica 23C; test: MIC, conventional broth-dilution microtiter test; conditions: broth-dilution microtiter; Pasteurella hemolytica 23C; read-out: MIC
Experimental: as §1

[18] = system: Pasteurella hemolytica 41D; test: MIC, conventional broth-dilution microtiter test; conditions: broth-dilution microtiter; Pasteurella hemolytica 41D; read-out: MIC
Experimental: as §1

[19] = system: Pasteurella multocida 17E; test: MIC, conventional broth-dilution microtiter test; conditions: broth-dilution microtiter; Pasteurella multocida 17E, Bovine isolate; read-out: MIC
Experimental: as §1

[20] = system: Pasteurella multocida 22A; test: MIC, conventional broth-dilution microtiter test; conditions: broth-dilution microtiter; Pasteurella multocida 22A; read-out: MIC
Experimental: as §1

[21] = system: Pasteurella multocida 40G; test: MIC, conventional broth-dilution microtiter test; conditions: broth-dilution microtiter; Pasteurella multocida 40G; read-out: MIC
Experimental: as §1

[22] = system: Pasteurella multocida 60A; test: MIC, conventional broth-dilution microtiter test; conditions: broth-dilution microtiter; Pasteurella multocida 60A, Avian isolate; read-out: MIC
Experimental: as §1

[23] = system: Pasteurella multocida 68C; test: MIC, conventional broth-dilution microtiter test; conditions: broth-dilution microtiter; Pasteurella multocida 68C; read-out: MIC
Experimental: as §1

Staphylococcus aureus = test: MIC, conventional broth-dilution microtiter test; conditions: broth-dilution microtiter, read-out: MIC
Experimental: as §1

Streptococcus sp. 80 = test: MIC, conventional broth-dilution microtiter test; conditions: broth-dilution microtiter; Streptococcus sp. 80; read-out: MIC
Experimental: as §1

[24] = system: Streptococcus pyogenes C203; test: MIC, standard agar-dilution assay; conditions: agar-dilution; Streptococcus pyogenes C203; read-out: MIC
Experimental: as §1

[25] = agar-dilution, Klebsiella pneumoniae X26, read-out: MIC
[26] = agar-dilution, Streptococcus pneumoniae Park I, read-out: MIC
[27] = agar-dilution, Staphylococcus epidermidis EPI2, read-out: MIC
[28] = Staphylococcus epidermidis, EPI1
[29] = agar-dilution, Escherichia coli TEM, read-out: MIC
[30] = agar-dilution, Streptococcus Group D X66, read-out: MIC
[31] = agar-dilution, Streptococcus 9960, read-out: MIC

SMILES	MIC (Escherichia coli EC14) [µg/mL]	MIC [1] [µg/mL]	MIC [2, 25] [µg/mL]	MIC [3] [µg/mL]	MIC [6, 26] [µg/mL]	MIC [10] [µg/mL]	MIC [12] [µg/mL]	MIC [14] [µg/mL]	MIC [15] [µg/mL]	MIC (Mycoplasma hyorhinis) [µg/mL]	MIC [16] [µg/mL]	MIC [17] [µg/mL]	MIC [18] [µg/mL]	MIC [19] [µg/mL]	MIC [20] [µg/mL]	MIC [21] [µg/mL]	MIC [22] [µg/mL]	MIC [23] [µg/mL]	MIC (Staphylococcus aureus) [µg/mL]	MIC (Streptococcus sp. 80) [µg/mL]	other results
CCC1OC(=O)CC(O)C(C)C(OC2OC(C)C(O)C(N(C)C)C2O)C(CCN2C(=O)c3ccccc3C2=O)CC(C)C(=O)C=CC(C)=CC1CO (stereo not shown) [Compound 6, 20-N-Phthalimido-20-deoxy-20-dihydro-OMT]	> 128	> 128	16 (≈ 22 µM)	8 (≈ 11 µM)	2 (≈ 2.74 µM)	16 (≈ 22 µM)	8 (≈ 11 µM)	50 (≈ 68.6 µM)	50 (≈ 68.6 µM)	50 (≈ 68.6 µM)	50 (≈ 68.6 µM)	50 (≈ 68.6 µM)	50 (≈ 68.6 µM)	50 (≈ 68.6 µM)	50 (≈ 68.6 µM)	50 (≈ 68.6 µM)	50 (≈ 68.6 µM)	25 (≈ 34.3 µM)	25 (≈ 34.3 µM)	3.12 (≈ 4.28 µM)	MIC (Escherichia coli TEM; Escherichia coli): 64 µg/mL (≈ 87.8 µM); MIC ([4]; agar-dilution, Staphylococcus aureus X1.1, read-out: MIC): 4 µg/mL (≈ 5.49 µM); MIC [5]: 16 µg/mL (≈ 22 µM); MIC [7]; 9960: 16 µg/mL (≈ 22 µM); MIC ([8]; Haemophilus influenzae, 76): 64 µg/mL (≈ 87.8 µM); MIC ([9]; Haemophilus influenzae): 64 µg/mL (≈ 87.8 µM); MIC [11, 27]: 2 µg/mL (≈ 2.74 µM); MIC [13, 28]: 4 µg/mL (≈ 5.49 µM); MIC (Mycoplasma gallisepticum; broth-dilution microtiter, Mycoplasma gallisepticum, read-out: MIC): 3.12 µg/mL (≈ 4.28 µM)
CCC1OC(=O)CC(O)C(C)C(OC2OC(C)C(OC3CC(C)(O)C(O)C(C)O3)C(N(C)C)C2O)C(CCN2C(=O)c3ccccc3C2=O)CC(C)C(=O)C=CC(C)=CC1CO (stereo not shown) [Compound 17, 20-N-Phthalimido-20-deoxy-20-dihydro-DMT]	> 128	> 128	> 128	64 (≈ 73.3 µM)	16 (≈ 18.3 µM)	64 (≈ 73.3 µM)	64 (≈ 73.3 µM)	50 (≈ 57.3 µM)	50 (≈ 57.3 µM)	50 (≈ 57.3 µM)	> 50	> 50	> 50	> 50	> 50	> 50	> 50	> 50	> 50	50 (≈ 57.3 µM)	MIC (Escherichia coli TEM; [29]): > 128 µg/mL; MIC ([4]; Staphylococcus aureus, X1.1): 64 µg/mL (≈ 73.3 µM); MIC [5, 30]: > 128 µg/mL; MIC [7, 31]: > 128 µg/mL; MIC [24]: 128 µg/mL (≈ 147 µM); MIC ([8]; agar-dilution, Haemophilus influenzae 76, Ampicillin-resistant strain, read-out: MIC): > 128 µg/mL; MIC ([9]; agar-dilution, Haemophilus influenzae C.L., Ampicillin-sensitive strain, read-out: MIC): > 128 µg/mL; MIC [11, 27]: 32 µg/mL (≈ 36.7 µM); MIC ([13]; agar-dilution, Staphylococcus epidermidis EPI1, read-out: MIC): 32 µg/mL (≈ 36.7 µM); MIC (Mycoplasma gallisepticum): 12.5 µg/mL (≈ 14.3 µM)
CCC1OC(=O)CC(O)C(C)C(OC2OC(C)C(O)C(N(C)C)C2O)C(CCN2C(=O)c3ccccc3C2=O)CC(C)C(=O)C=CC(C)=CC1C (stereo not shown) [Compound 22, 20-N-Phthalimido-20-deoxy-20-dihydro-DOMT]	> 128	> 128	–	8 (≈ 11.2 µM)	–	32 (≈ 44.9 µM)	8 (≈ 11.2 µM)	50 (≈ 70.1 µM)	50 (≈ 70.1 µM)	25 (≈ 35.1 µM)	50 (≈ 70.1 µM)	50 (≈ 70.1 µM)	50 (≈ 70.1 µM)	50 (≈ 70.1 µM)	50 (≈ 70.1 µM)	50 (≈ 70.1 µM)	50 (≈ 70.1 µM)	25 (≈ 35.1 µM)	25 (≈ 35.1 µM)	6.25 (≈ 8.77 µM)	MIC (Escherichia coli TEM; [29]): 128 µg/mL (≈ 180 µM); MIC ([2]; Klebsiella pneumoniae, X26): 32 µg/mL (≈ 44.9 µM); MIC ([4]; Staphylococcus aureus, X1.1): 8 µg/mL (≈ 11.2 µM); MIC [5, 30]: 16 µg/mL (≈ 22.4 µM); MIC ([6]; Streptococcus pneumoniae): 4 µg/mL (≈ 5.61 µM); MIC [7, 31]: 16 µg/mL (≈ 22.4 µM); MIC ([8]; Haemophilus influenzae, 76): 128 µg/mL (≈ 180 µM); MIC ([9]; Haemophilus influenzae): 128 µg/mL (≈ 180 µM); MIC ([11]; Staphylococcus epidermidis, EPI2): 4 µg/mL (≈ 5.61 µM); MIC [13, 28]: 8 µg/mL (≈ 11.2 µM); MIC (Mycoplasma gallisepticum): 0.78 µg/mL (≈ 1.09 µM)
